# Data: US12428377B2, “Sodium-hydrogen exchanger 3 inhibitor compounds” (Eli Lilly and Company, priority 2019, dated 2025)
# “And” between values parts separate entries of the source, which are not always exact repeats. Identical values can stand only once.
# How the values were obtained:
# Type in all cases: in vivo, rat
# [1] = test system: male Sprague Dawley rats; assay: Phosphate absorption 15 min after radiolabeled phosphate (Example 2, Compound A, combination); details: Compound A 10 mg/kg, plasma 15 min after radiolabeled phosphate, P=0.013 versus vehicle control
# Procedure: Effect of Example 2 in Combination with an NPT2b Inhibitor (Compound A) on Phosphate Absorption and Intestinal Phosphate Retention in Rats
# (§1) The purpose of this study is to investigate in rats the effect of Example 2, Compound A, and an Example 2/Compound A combination on phosphate absorption 15 min after dosing the compounds and the phosphate retained in the intestine 4.25 h after dosing the compounds. The latter is a measure of the oral phosphate load which is absorbed over an extended period.
# (§2) Two vehicles are used in this study: 1) 1% HEC and 2) 0.46% poly-1-vinylpyrrolidone-co-vinyl acetate in water (PVP-VA vehicle). The vehicle control group in this study receives a 1:1 combination of the two vehicles.
# The Example 2, Compound A and phosphate dosing solutions are prepared similarly as described above, except the doses are 0.4 mg/kg for Example 2 and 10 mg/kg for Compound A and they are prepared at a concentration where they would be dosed in a 5 mL/kg volume. […]
# Male Sprague Dawley rats are fasted 4 h and then administered appropriate vehicles, 10 mg/kg Compound A, 0.4 mg/kg Example 2, or a combination of both compounds. […] Radioactivity in plasma is measured by scintillation counting and used to calculate the inhibition of phosphate absorption. […] Statistical significance is determined by ANOVA with a Dunnett's comparison to the Example 2/Compound A combination using JMP 12.1.
# [2] = test system: male Sprague Dawley rats; assay: Radiolabeled phosphate absorption in rats, Studies 1-3 (plasma radioactivity); details: for Absorption (vs. vehicle control): mean ± SEM
# Procedure: Effect of Example 2 in Combination with an NPT2b Inhibitor (Compound A) on Phosphate Absorption in Rats
# NPT2b inhibitor dosing solutions: Compound A and poly-1-vinylpyrrolidone-co-vinyl acetate (PVP-VA, Sigma-Aldrich) are weighed into a bottle at a ratio of 30% Compound A and 70% PVP-VA by weight. A clear yellow solution is prepared by diluting the mixture in MeOH followed by the addition of 2 mol NaOH per mol Compound A using 5 N NaOH. The solution is spray dried by a stream of hot nitrogen and the solid dispersion powder is collected and then further dried in a vacuum oven. Doses for the sprayed dried solid dispersion (SDD) are expressed as active pharmaceutical ingredient (API) throughout.
# To make the Compound A dosing solution, an appropriate amount of Compound A SDD is weighed in a vial and dissolved in water (10 mL/kg dosing volume). […] The subsequent solutions for lower doses are prepared by serial dilutions with water. PVP-VA at 7 mg/mL is used as a vehicle control.
# NHE3 inhibitor dosing solutions: To make the Example 2 dosing solution, an appropriate amount of the compound is weighed in a vial and dissolved in 1% HEC (10 mL/kg dosing volume). […] The subsequent solutions for lower doses are prepared by serial dilutions with HEC.
# To make the radiolabeled phosphate dosing solution, a 16.25 mM Na2HPO4, 0.9% saline, pH 7.4 solution is prepared and filtered using a sterile, 0.22 μm, polyethersulfone, Millex-GP Syringe Filter Unit (EMD Millipore). Radioactive phosphate (H3^33PO4, Perkin Elmer) is added at about 2.5 μCi per mL of the solution and filtered again.
# Three separate studies are performed. In these studies, male Sprague Dawley rats, are randomized into groups with approximately equal mean body weights. Following an overnight fast, all the animals are dosed at 10 mL/kg with either vehicle, varying doses of Compound A (Study 1), varying doses of Example 2 (Study 2) or 1.2 mg/kg Compound A and varying doses of Example 2 (Study 3). 15 min later, radiolabeled phosphate is orally dosed in a 2 mL volume. 15 min later, blood is collected and plasma is prepared. Radioactivity (dpm) in 50 μL plasma is measured by scintillation counting and is used to calculate phosphate absorption. The results are normalized with the vehicle controls representing 100% absorption. The curves are fitted with nonlinear regression with variable slope using GraphPad Prism 6 to calculate the ED50 and Emax given in Table 7. […] No curve fit was performed for Compound A alone in Study 1.
# [3] = test system: male Sprague Dawley rats; assay: Intestinal phosphate retention: percent radiolabeled dose recovered in gastrointestinal tract; details: Compound A 10 mg/kg, 4 h after radiolabeled phosphate
# Procedure: as §1, §2
# The Example 2, Compound A and phosphate dosing solutions are prepared similarly as described above, except the doses are 0.4 mg/kg for Example 2 and 10 mg/kg for Compound A and they are prepared at a concentration where they would be dosed in a 5 mL/kg volume. The Example 2 and Compound A alone groups are mixed 1:1 with the vehicle of the other compound, while the Compound A and Example 2 are mixed 1:1 prior to dosing. The final dosing volume is 10 mL/kg in all cases.
# 4 h after the radiolabeled phosphate solution is dosed, stomach, small intestine, large intestine, and feces are collected, weighed and digested with 1N NaOH overnight at 37° C. Radioactivity in each fraction is measured by scintillation counting.
# The percent dose recovered in gastrointestinal tract is defined as radioactivity recovered in stomach, small intestine, large intestine and feces compared to the amount dosed. Data is presented as mean±SEM with animal numbers equal to 8 for the groups. Statistical significance is determined by ANOVA with a Dunnett's comparison to the Example 2/Compound A combination using JMP 12.1.
# The percent dose recovered in gastrointestinal tract data is further analyzed by a two-way ANOVA in JMP 12.1 to test for additivity of the effects of Example 2 and Compound A on inhibiting phosphate absorption. […] That is, the inhibitory effect of the combination is greater than the sum of the individual compound effects.
smiles,measurement,setting,value
"CC1(C)CN(C(=O)NCCCCO)CCN1Cc1cccc(C(=O)Nc2sc3c(c2C(=O)Nc2cc(F)c(CCc4ccc(C(=O)O)cc4)c(F)c2)CCCC3)c1 [Compound A, reference compound]",Inhibition of phosphate absorption,[1],35%
same,Absorption (vs. vehicle control),"[2]; Study 1, rats, Compound A 0.01 mg/kg",94.39 ± 7.88%
same,Absorption (vs. vehicle control),"[2]; Study 1, rats, Compound A 0.1 mg/kg",87.61 ± 6.08%
same,Absorption (vs. vehicle control),"[2]; Study 1, rats, Compound A 1 mg/kg",87.64 ± 7.26%
same,Absorption (vs. vehicle control),"[2]; Study 1, rats, Compound A 10 mg/kg",81.53 ± 5.50%
same,% Inhibition at the highest dose (phosphate absorption),"[2]; Study 1, rats, Compound A highest dose tested (10 mg/kg)",18%
same,Absorption (vs. vehicle control),"[2]; Study 3, rats, Vehicle + Compound A 1.2 mg/kg",71.00 ± 11.63%
same,"Percent Dose Recovered, Feces",[3],<0.1%
same,"Percent Dose Recovered, Large Intestine",[3]; mean ± SEM,18.43 ± 2.03%
same,"Percent Dose Recovered, Small Intestine",[3]; mean ± SEM,8.98 ± 0.48%
same,"Percent Dose Recovered, Stomach",[3]; mean ± SEM,4.86 ± 1.13%
same,"Percent Dose Recovered, Total","[3]; mean ± SEM, 10 mg/kg",32% and 32.27 ± 1.38%
